This series concerns the target HBV. The conditions noted are these: ASO.

“And” between values parts separate entries of the source, which are not always exact repeats. Equal values may be shown once. HELM strings list units from the 5' end as sugar, base in round brackets, then linkage (d deoxyribose, r ribose, m 2'-O-methyl, p phosphodiester). Methylation of C is not given here. [moe] = 2'-O-(2-methoxyethyl) (MOE); [cEt] = constrained ethyl (cEt); [sp] = phosphorothioate linkage

Turning to “RNA1{[moe](G)[sp].[moe](A)[sp].[moe](G)[sp].d(G)[sp].d(T)[sp].d(G)[sp].d(A)[sp].d(A)[sp].d(G)[sp].d(C)[sp].d(G)[sp].d(A)[sp].d(A)[sp].[cEt](G)[sp].[cEt](T)[sp].[cEt](G)}$$$$V2.0”, the target mRNA inhibition (HepG2, 0.07 µM) was 67% and 57%. On the same count and under the same terms, under “RNA1{[moe](G)[sp].[moe](A)[sp].[moe](A)[sp].[moe](C)[sp].[moe](T)[sp].d(G)[sp].d(G)[sp].d(A)[sp].d(G)[sp].d(C)[sp].d(C)[sp].d(A)[sp].d(C)[sp].d(C)[sp].[moe](A)[sp].[moe](G)}$$$$V2.0” stands 46% and 39%; under “RNA1{[moe](C)[sp].[cEt](C)[sp].[cEt](A)[sp].d(C)[sp].d(G)[sp].d(A)[sp].d(G)[sp].d(T)[sp].d(C)[sp].d(T)[sp].d(A)[sp].d(G)[sp].d(A)[sp].[cEt](C)[sp].[cEt](T)[sp].[moe](C)}$$$$V2.0”, 0%. On the same count and under the same terms, under “RNA1{[moe](A)[sp].[moe](G)[sp].[moe](G)[sp].[moe](T)[sp].[moe](G)[sp].d(A)[sp].d(A)[sp].d(G)[sp].d(C)[sp].d(G)[sp].d(A)[sp].d(A)[sp].d(G)[sp].d(T)[sp].[moe](G)[sp].[moe](C)[sp].[moe](A)}$$$$V2.0” stands 73% and 56%; under “RNA1{[moe](C)[sp].[cEt](T)[sp].[cEt](G)[sp].d(A)[sp].d(A)[sp].d(C)[sp].d(A)[sp].d(A)[sp].d(A)[sp].d(T)[sp].d(G)[sp].d(G)[sp].d(C)[sp].[cEt](A)[sp].[cEt](C)[sp].[moe](T)}$$$$V2.0”, 69% and 58%. For the substance “RNA1{[moe](A)[sp].[moe](G)[sp].[moe](T)[sp].d(T)[sp].d(C)[sp].d(C)[sp].d(G)[sp].d(C)[sp].d(A)[sp].d(G)[sp].d(T)[sp].d(A)[sp].d(T)[sp].[cEt](G)[sp].[cEt](G)[sp].[cEt](A)}$$$$V2.0”, the target mRNA inhibition (HepG2, 0.07 µM) is 58% and 69%.

“RNA1{[moe](G)[sp].[moe](A)[sp].d(G)[sp].d(G)[sp].d(C)[sp].d(A)[sp].d(T)[sp].d(A)[sp].d(G)[sp].d(C)[sp].d(A)[sp].[moe](G)[sp].[moe](C)[sp].[moe](A)[sp].[moe](G)[sp].[moe](G)}$$$$V2.0” had a target mRNA inhibition (HepG2, 0.07 µM) of 0%. Turning to “RNA1{[moe](A)[sp].[moe](C)[sp].[moe](T)[sp].[moe](A)[sp].[moe](G)[sp].[moe](T)[sp].d(A)[sp].d(A)[sp].d(A)[sp].d(C)[sp].d(T)[sp].d(G)[sp].d(A)[sp].d(G)[sp].d(C)[sp].[moe](C)[sp].[moe](A)}$$$$V2.0”, the target mRNA inhibition is 2% (HepG2, 0.0092593 µM); 15% (HepG2, 0.0277778 µM); 84% and 75% (HepG2, 0.07 µM); 38% (HepG2, 0.0833333 µM); 75% (HepG2, 0.25 µM). In the case of “RNA1{[moe](G)[sp].[moe](A)[sp].[moe](A)[sp].[moe](G)[sp].[moe](T)[sp].d(C)[sp].d(C)[sp].d(A)[sp].d(C)[sp].d(C)[sp].d(A)[sp].d(C)[sp].d(G)[sp].d(A)[sp].[moe](G)[sp].[moe](T)[sp].[moe](C)}$$$$V2.0”, where the note is “HepG2, 0.07 µM”, the target mRNA inhibition is 5% and 2%.

Consider “RNA1{[moe](A)[sp].[cEt](G)[sp].d(A)[sp].d(T)[sp].d(G)[sp].d(A)[sp].d(G)[sp].d(G)[sp].d(C)[sp].d(A)[sp].d(T)[sp].d(A)[sp].[cEt](G)[sp].[moe](C)[sp].[cEt](A)[sp].[moe](G)}$$$$V2.0”, for which the target mRNA inhibition (HepG2, 0.07 µM) is 72% and 60%.

In the case of “RNA1{[moe](G)[sp].[cEt](G)[sp].d(T)[sp].d(G)[sp].d(A)[sp].d(A)[sp].d(G)[sp].d(C)[sp].d(G)[sp].d(A)[sp].d(A)[sp].d(G)[sp].[cEt](T)[sp].[moe](G)[sp].[cEt](C)[sp].[moe](A)}$$$$V2.0”, the target mRNA inhibition runs as follows: (HepG2, 0.0092593 µM) 22%; (HepG2, 0.0277778 µM) 51%; (HepG2, 0.07 µM) 80% and 81%; (HepG2, 0.0833333 µM) 82%; (HepG2, 0.25 µM) 88%. Take “RNA1{[moe](G)[sp].[moe](G)[sp].[moe](C)[sp].[moe](A)[sp].[moe](T)[sp].d(A)[sp].d(G)[sp].d(C)[sp].d(A)[sp].d(G)[sp].d(C)[sp].d(A)[sp].d(G)[sp].d(G)[sp].[moe](A)[sp].[moe](T)}$$$$V2.0”: the target mRNA inhibition (HepG2, 0.07 µM) is 55% and 41%. On the same count and under the same terms, under “RNA1{[moe](G)[sp].[cEt](T)[sp].[cEt](C)[sp].d(C)[sp].d(A)[sp].d(C)[sp].d(C)[sp].d(A)[sp].d(C)[sp].d(G)[sp].d(A)[sp].d(G)[sp].d(T)[sp].[cEt](C)[sp].[cEt](T)[sp].[moe](A)}$$$$V2.0” stands 55% and 56%; under “RNA1{[moe](A)[sp].[cEt](G)[sp].d(G)[sp].d(C)[sp].d(A)[sp].d(G)[sp].d(A)[sp].d(G)[sp].d(G)[sp].d(T)[sp].d(G)[sp].d(A)[sp].[cEt](A)[sp].[moe](A)[sp].[cEt](A)[sp].[moe](A)}$$$$V2.0”, 39% and 37%. In the case of “RNA1{[moe](A)[sp].[moe](C)[sp].[moe](T)[sp].d(G)[sp].d(G)[sp].d(A)[sp].d(G)[sp].d(C)[sp].d(C)[sp].d(A)[sp].d(C)[sp].d(C)[sp].[moe](A)[sp].[moe](G)[sp].[moe](C)[sp].[moe](A)}$$$$V2.0”, the target mRNA inhibition by setting is: (HepG2, 0.0092593 µM) 4%; (HepG2, 0.0277778 µM) 23%; (HepG2, 0.07 µM) 53% and 72%; (HepG2, 0.0833333 µM) 46%; (HepG2, 0.25 µM) 56%. As to “RNA1{[moe](A)[sp].[cEt](G)[sp].d(T)[sp].d(C)[sp].d(C)[sp].d(A)[sp].d(C)[sp].d(C)[sp].d(A)[sp].d(C)[sp].d(G)[sp].d(A)[sp].[cEt](G)[sp].[moe](T)[sp].[cEt](C)[sp].[moe](T)}$$$$V2.0”, the target mRNA inhibition (HepG2, 0.07 µM) was 51% and 43%. Same read-out and setting: under “RNA1{[moe](A)[sp].[cEt](A)[sp].[cEt](C)[sp].d(A)[sp].d(A)[sp].d(A)[sp].d(T)[sp].d(G)[sp].d(G)[sp].d(C)[sp].d(A)[sp].d(C)[sp].d(T)[sp].[cEt](A)[sp].[cEt](G)[sp].[moe](T)}$$$$V2.0” stands 78% and 76%; under “RNA1{[moe](A)[sp].[moe](G)[sp].[moe](G)[sp].[moe](A)[sp].d(G)[sp].d(T)[sp].d(T)[sp].d(C)[sp].d(C)[sp].d(G)[sp].d(C)[sp].d(A)[sp].d(G)[sp].[moe](T)[sp].[moe](A)[sp].[moe](T)[sp].[moe](G)}$$$$V2.0”, 74% and 50%; under “RNA1{[moe](C)[sp].[moe](C)[sp].[moe](A)[sp].[moe](A)[sp].d(T)[sp].d(T)[sp].d(T)[sp].d(A)[sp].d(T)[sp].d(G)[sp].d(C)[sp].d(C)[sp].d(T)[sp].[moe](A)[sp].[moe](C)[sp].[moe](A)}$$$$V2.0”, 24% and 8%. Consider “RNA1{[moe](A)[sp].[moe](G)[sp].[moe](C)[sp].[moe](G)[sp].d(A)[sp].d(A)[sp].d(G)[sp].d(T)[sp].d(G)[sp].d(C)[sp].d(A)[sp].d(C)[sp].d(A)[sp].[moe](C)[sp].[moe](G)[sp].[moe](G)}$$$$V2.0”, for which the target mRNA inhibition was 25% (HepG2, 0.0092593 µM); 37% (HepG2, 0.0277778 µM); 78% and 73% (HepG2, 0.07 µM); 73% (HepG2, 0.0833333 µM); 87% (HepG2, 0.25 µM). In the case of “RNA1{[moe](G)[sp].[moe](A)[sp].[moe](G)[sp].[moe](T)[sp].[moe](T)[sp].d(C)[sp].d(C)[sp].d(G)[sp].d(C)[sp].d(A)[sp].d(G)[sp].d(T)[sp].d(A)[sp].d(T)[sp].[moe](G)[sp].[moe](G)[sp].[moe](A)}$$$$V2.0”, the target mRNA inhibition (HepG2, 0.07 µM) is 75% and 56%. Same read-out and setting: next, “RNA1{[moe](G)[sp].[cEt](A)[sp].[cEt](A)[sp].d(G)[sp].d(C)[sp].d(G)[sp].d(A)[sp].d(A)[sp].d(G)[sp].d(T)[sp].d(G)[sp].d(C)[sp].d(A)[sp].[cEt](C)[sp].[cEt](A)[sp].[moe](C)}$$$$V2.0”: 75% and 78%. Same read-out and setting: next, “RNA1{[moe](G)[sp].[moe](C)[sp].[moe](A)[sp].d(G)[sp].d(T)[sp].d(A)[sp].d(T)[sp].d(G)[sp].d(G)[sp].d(A)[sp].d(T)[sp].d(C)[sp].[moe](G)[sp].[moe](G)[sp].[moe](C)[sp].[moe](A)}$$$$V2.0”: 81% and 72%; “RNA1{[moe](A)[sp].[cEt](A)[sp].[cEt](C)[sp].d(C)[sp].d(A)[sp].d(C)[sp].d(T)[sp].d(G)[sp].d(A)[sp].d(A)[sp].d(C)[sp].d(A)[sp].d(A)[sp].[cEt](A)[sp].[cEt](T)[sp].[moe](G)}$$$$V2.0”: 64% and 51%.

With “RNA1{[moe](A)[sp].[cEt](A)[sp].d(G)[sp].d(T)[sp].d(C)[sp].d(C)[sp].d(A)[sp].d(C)[sp].d(C)[sp].d(A)[sp].d(C)[sp].d(G)[sp].[cEt](A)[sp].[moe](G)[sp].[cEt](T)[sp].[moe](C)}$$$$V2.0”, the target mRNA inhibition (HepG2, 0.07 µM) is 43% and 40%. Same read-out and setting: under “RNA1{[moe](G)[sp].[moe](T)[sp].d(T)[sp].d(C)[sp].d(C)[sp].d(G)[sp].d(C)[sp].d(A)[sp].d(G)[sp].d(T)[sp].d(A)[sp].[moe](T)[sp].[moe](G)[sp].[moe](G)[sp].[moe](A)[sp].[moe](T)[sp].[moe](C)}$$$$V2.0” stands 45% and 58%.

Consider “RNA1{[moe](A)[sp].[moe](C)[sp].[moe](G)[sp].[moe](G)[sp].[moe](G)[sp].d(C)[sp].d(A)[sp].d(A)[sp].d(C)[sp].d(A)[sp].d(T)[sp].d(A)[sp].d(C)[sp].d(C)[sp].[moe](T)[sp].[moe](T)}$$$$V2.0”, for which the target mRNA inhibition (HepG2, 0.07 µM) was 56% and 46%. Same read-out and setting: next, “RNA1{[moe](G)[sp].[moe](G)[sp].d(A)[sp].d(G)[sp].d(T)[sp].d(T)[sp].d(C)[sp].d(C)[sp].d(G)[sp].d(C)[sp].d(A)[sp].[moe](G)[sp].[moe](T)[sp].[moe](A)[sp].[moe](T)[sp].[moe](G)}$$$$V2.0”: 67% and 45%. Same read-out and setting: next, “RNA1{[moe](T)[sp].[moe](G)[sp].[moe](G)[sp].[moe](A)[sp].[moe](G)[sp].d(C)[sp].d(C)[sp].d(A)[sp].d(C)[sp].d(C)[sp].d(A)[sp].d(G)[sp].d(C)[sp].d(A)[sp].[moe](G)[sp].[moe](G)}$$$$V2.0”: 33% and 32%.

The values above are taken from the OligoGym collection.
